In US6150341A, “Vitamin B12 derivatives and methods for their preparation” (Biotch Australia Pty Limited, priority 1998, dated 2000):

Target: T1, Porcine Intrinsic Factor (Sus scrofa, UniProt A0A8D1ENZ1)
T1 construct: purchased Sigma
Assay: Relative IF affinity of 5'O-VB12 derivatives (57CoVB12 competition, BSA-coated charcoal separation)
Conditions: inhibition of 57CoVB12 binding to porcine IF compared to unmodified VB12; 20 minutes at room temperature, pH 7.5
Protocol: Determination of the relative IF affinity of various 5'O-VB12 derivatives.
IF Buffer: BSA (VB12 and IF deficient) BSA (Sigma A-3902) was dissolved at 1 mg/ml in 0.1M potassium phosphate buffer pH 7.5.
^57 CoVB12 : ^57 Co stock (50 μl) (Kodak) was diluted into 50 ul of stock in 25 ml of IF buffer to give a solution of 1 ng ^57 CoVB12 /25 ml. 250 ng cold VB12 was added to 25 ml of hot ^57 CoVB12 solution to give a 10 ng/ml solution.
Porcine Intrinsic Factor: Porcine IF (Sigma) was dissolved in IF buffer at 200 Units/ml, and frozen in 500 ul lots (100 IU aliquots) until required.
BSA-coated charcoal: BSA (1%) was added to an equal volume of 5% charcoal solution of 0.1 M potassium phosphate buffer pH 7.5 and stirred gently for 30 minutes.
Ten fold up dilutions of VB12 or VB12 derivatives were prepared down to 1 ng/ml in IF buffer. An equal volume of diluted IF was added to each sample and incubated for 20 minutes at room temperature. An equal volume of the BSA-coated charcoal was added to each sample, which was mixed prior to centrifugation. Following centrifugation the supernatant and pellet of each sample were separated and ^57 CoVB12 determined by counting in a gamma counter. Data is represented as the % inhibition of ^57 CoVB2 binding when compared to unmodified VB12.

T1 sequence (A0A8D1ENZ1 29-425): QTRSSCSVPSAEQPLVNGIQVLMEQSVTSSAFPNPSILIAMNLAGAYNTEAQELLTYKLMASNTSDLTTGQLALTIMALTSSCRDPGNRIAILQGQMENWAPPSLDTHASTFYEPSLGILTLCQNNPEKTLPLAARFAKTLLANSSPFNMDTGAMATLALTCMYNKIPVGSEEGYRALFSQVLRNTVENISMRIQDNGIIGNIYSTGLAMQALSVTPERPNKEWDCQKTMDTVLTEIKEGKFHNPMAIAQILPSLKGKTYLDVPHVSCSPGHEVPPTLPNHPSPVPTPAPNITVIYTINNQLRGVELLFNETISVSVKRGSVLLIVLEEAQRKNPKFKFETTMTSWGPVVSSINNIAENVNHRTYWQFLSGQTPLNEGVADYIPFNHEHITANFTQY

Substance | % binding relative to vitamin B12 [%]
5'OH-(adipylhydrazidyl)-VB12 [adiphylhydrazidyl-5'O-VB12] | 29
5'OH-(hexyl)-VB12 [hexyl-5'O-VB12] | 49
5'OH-(dodecyl)-VB12 [dodecyl-5'O-VB12] | 35
5'OH-(aminoethyl)-VB12 [aminoethyl-5'O-VB12] | 40
5'OH-(aminododecanyl)-VB12 [aminododecanyl-5'O-VB12] | 31
VB12 -glycine acid [HO-Gly-5'O-VB12] | 25
5'OH-(tetradecyl)-VB12 [tetradecyl-5'O-VB12] | 4.2
5'OH-(succinylhydrazidyl)-VB12 [succinylhydrazidyl-5'O-VB12] | 37
5'OH-(hexadecyl)-VB12 [hexadecy-5'O-VB12] | 0.78
5'OH-(aminohexyl)-VB12 [aminohexyl-5'O-VB12] | 25
5'OH-(aminobutyl)-VB12 [aminobutyl-5'O-VB12] | 27
5'OH-(octadecyl)-VB12 [octadecyl-5'O-VB12] | 0.57
